# Measured values published in US20090075987A1, “ALKYLACETYLENE SUBSTITUTED ACYLTRYPTOPHANOLS” (priority 2007, published 2009).
# Target: T1, human FSH receptor (Homo sapiens, UniProt P23945)
# T1 construct: expressed in transfected cells; host or cells: CHO cells (hFSHR clone 16)
# T1 sequence (P23945 18-695): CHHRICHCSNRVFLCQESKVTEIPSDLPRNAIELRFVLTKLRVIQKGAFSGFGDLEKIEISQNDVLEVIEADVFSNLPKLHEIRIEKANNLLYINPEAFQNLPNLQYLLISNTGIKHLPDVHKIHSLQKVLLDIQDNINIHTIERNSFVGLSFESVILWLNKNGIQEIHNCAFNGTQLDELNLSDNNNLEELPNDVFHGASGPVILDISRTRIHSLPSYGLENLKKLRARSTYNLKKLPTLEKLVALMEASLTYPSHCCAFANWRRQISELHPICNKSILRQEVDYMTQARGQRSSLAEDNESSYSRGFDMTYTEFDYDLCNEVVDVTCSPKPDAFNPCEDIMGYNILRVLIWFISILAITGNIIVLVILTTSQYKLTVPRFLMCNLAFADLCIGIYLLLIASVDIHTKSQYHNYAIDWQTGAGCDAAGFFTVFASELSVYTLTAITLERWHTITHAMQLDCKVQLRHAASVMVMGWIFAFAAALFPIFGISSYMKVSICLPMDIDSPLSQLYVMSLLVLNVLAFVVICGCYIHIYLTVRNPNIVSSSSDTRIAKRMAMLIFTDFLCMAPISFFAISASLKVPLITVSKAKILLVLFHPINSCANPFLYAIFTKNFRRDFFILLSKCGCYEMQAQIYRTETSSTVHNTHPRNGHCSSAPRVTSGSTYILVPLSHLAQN
# Experiment: HTRF assay for measuring cAMP in cells
# Format: cell-based
# Details: hFSHR clone 16 cells (CHO cells stably transfected with the human FSH receptor); in the presence of 1e-9 mol/l hFSH; 37° C. for 2 h; read-out: IC50 (FSH-antagonistic effect in the HTRF assay)
# Procedure: HTRF Assay for Measuring cAMP in Cells
# The method is based on a competitive immunoassay between native cAMP, which has been produced by the cells, and cAMP which is labelled with XL665. The tracer binding was visualized by a monoclonal antibody, anti-cAMP labelled with cryptate [HTRF=homogeneous time-resolved fluorescence].
# The specific signal is inversely proportional to the cAMP concentration of the samples employed.
# The 665 nm/620 nm fluorescence ratio was evaluated.
# The following material was used: 96-well plates for the tissue culture, 96-well plates with black edge and black base (e.g. Fluotrac 600 from Greiner), 96-well plates for the substance dilutions of polypropylene and cAMP Femtomolar (4000 wells Kit, CIS Bio International # 62AM1PEC).
# The following reagents were used: BSA (bovine serum albumin) Fraction V protease-free, IBMX (3-isobutyl-1-methylxanthine), hFSH (human follicle stimulating hormone), Triton X-100 analytical grade, potassium fluoride analytical grade, G 418 (Geneticin) and Accutase.
# Buffer 1 (washing and testing buffer) contained PBS, 1 mM CaCl2, 1 mM MgCl2, 0.2% glucose; 0.1% BSA, 1 mM IBMX. Buffer 2 (2× lysis buffer) contained 1% Triton X-100 in PBS (without CaCl2 and MgCl2). Buffer 3 (assay buffer) contained 50 mM potassium phosphate buffer (pH 7.0); 800 mM potassium fluoride; 0.2% BSA (always added fresh).
# On day 1, the cells were seeded in 96-well plates (3×10^4 cells per well hFSHR clone 16 cells (CHO cells stably transfected with the human FSH receptor in 150 μl of medium). The next day, test substance dilutions were made up. For this purpose, all the substances were diluted in ice-cold buffer 1 (with or without hFSH), and the substance dilutions were placed on ice until applied to the cells.
# The cell supernatant was then aspirated off, and the cells were washed 2× with 200 μl of buffer 1. The cells were treated with 60 μl of the appropriate substance concentrations at 37° C. for 2 h. The cells were then lysed with 60 μl of buffer 2 (put onto the supernatant) (on a plate shaker at RT for 30 min).
# The test conjugates (XL-665 and anti-cAMP cryptate) were diluted in buffer 3 in accordance with the manufacturers' information. The actual mixture for measurement was pipetted into a black 96-well plate (in each case 15 μl of the cell lysate diluted with 35 μl of buffer 1; firstly 25 μl of XL-665 conjugate were pipetted and, after 10 min, 25 μl of the anti-cAMP cryptate were added). This is followed by incubation at RT for 90 minutes. The measurement was carried out in a PheraStar (BMG).
# Tissue Culture Conditions
# 1) hFSHr clone 16 Ham's F12 • PSG • 10% FCS • 700 μg/ml G 418 (Geneticin) from PAA.
# Dose-effect curve (hFSH) for the human receptor: 1e-8, 3e-9, 1e-9, 3e-10, 1e-10, 3e-11, 1e-11, 3e-12 mol/l.
# The test substances were employed in suitable dilutions in the absence (test for agonism) and in the presence of 1e-9 mol/l hFSH.
# The values of the well ratio were averaged and then entered directly in SigmaPlot versus the concentrations. The maximum and minimum values were determined for each plate, and half the difference is to be regarded as IC50.
row,SMILES,IC50
1,"CC(C)Oc1ccc(C#CCCCO)cc1C(=O)N[C@@H](CO)Cc1c[nH]c2ccccc12 [Example 8, N-[(R)-1-Hydroxy-methyl-2-(1H-indol-3-yl)-ethyl]-5-(5-hydroxy-pent-1-ynyl)-2-iso-propoxy-benzamide]",0.5 µM
2,"CNC(=O)N(C)CC#Cc1ccc(OC(C)C)c(C(=O)N[C@@H](CO)Cc2c[nH]c3ccccc23)c1 [Example 10, 5-[3-(1,3-Dimethyl-ureido)-prop-1-ynyl]-N-[(R)-1-hydroxymethyl-2-(1H-indol-3-yl)-ethyl]-2-isopropoxy-benzamide]",6 µM

# Next, values leading:
row,IC50,SMILES
1,0.6 µM,"CC(C)Oc1ccc(C#CC(C)(C)C)cc1C(=O)N[C@@H](CO)Cc1c[nH]c2ccccc12 [Example 3, 5-(3,3-Dimethyl-but-1-ynyl)-N-[(R)-1-hydroxy-methyl-2-(1H-indol-3-yl)-ethyl]-2-isopropoxy-benzamide]"
2,4.5 µM,"CC(C)Oc1ccc(C#CCN2CCS(=O)(=O)CC2)cc1C(=O)N[C@@H](CO)Cc1c[nH]c2ccccc12 [Example 5, 5-[3-(1,1-Dioxo-1-lambda*6*-thiomorpho-lin-4-yl)-prop-1-ynyl]-N-[(R)-2-hydroxy-1-(1H-indol-3-ylmethyl)-ethyl]-2-isopropoxy-benzamide]"
3,0.2 µM,"Cc1ccc(NC(=O)NCC#Cc2ccc(OC(C)C)c(C(=O)N[C@@H](CO)Cc3c[nH]c4ccccc34)c2)cc1 [Example 7, N-[(R)-1-Hydroxy-methyl-2-(1H-indol-3-yl)-ethyl]-2-isopropoxy-5-[3-(3-p-tolyl-ureido)-prop-1-ynyl]-benzamide]"
